Test results: patent publication US11958861B2, “Spirocyclic lactams as JAK2 V617F inhibitors” (Incyte Corporation, priority 2021, dated 2024)
pIC50: −log10 of the molar value. Structures can show the parent of a compound that is named as a salt.

Columns and labels:
[1] = target: T1, pseudo-kinase domain (JH2, amino-acids 536-812) of human V617F mutant JAK2 (Homo sapiens, UniProt O60674, F794H/V617F/W659A/W777A); test: JAK2 LanthaScreen JH2-V617F Binding Assay; conditions: 1 hour at 25° C.
T1 construct: pseudo-kinase domain (JH2, amino-acids 536-812 with 3 surface mutations W659A, W777A, F794H); purchased BPS Bioscience 79498; host or cells: baculovirus expression system
T1 sequence (O60674 536-812 V617F/W659A/W777A/F794H): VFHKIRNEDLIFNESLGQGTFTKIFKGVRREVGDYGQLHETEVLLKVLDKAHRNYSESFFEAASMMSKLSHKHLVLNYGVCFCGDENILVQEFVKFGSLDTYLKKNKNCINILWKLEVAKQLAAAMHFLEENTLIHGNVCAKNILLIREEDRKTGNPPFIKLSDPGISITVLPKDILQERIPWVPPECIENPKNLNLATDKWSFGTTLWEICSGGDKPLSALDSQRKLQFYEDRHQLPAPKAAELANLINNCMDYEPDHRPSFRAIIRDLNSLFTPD
Description: Example C. JAK2 LanthaScreen JH2-V617F Binding Assay
(§1) JAK2 JH2-V617F binding assay utilizes pseudo-kinase domain (JH2, amino-acids 536-812 with 3 surface mutations W659A, W777A, F794H) of human V617F mutant JAK2 expressed as C-terminal His-Avi-tagged, biotinylated protein in a baculovirus expression system (BPS Bioscience, Catalog #79498). The assay was conducted in black 384-well polystyrene plates in a final reaction volume of 20 μL. JAK2 JH2-V617F (0.26 nM) was incubated with compounds (100 nL serially diluted in DMSO) in the presence of 50 nM Fluorescent JAK2-JH2 Tracer (MedChem Express Catalog #HY-102055) and 0.25 nM Streptavidin-Tb cryptate (Cisbio Part #610SATLB) in assay buffer (50 mM Tris, pH=7.5, 10 mM MgCl2, 0.01% Brij-35, 0.1% BSA, 1 mM EGTA, 5% Glycerol and 5 mM DTT). Non-specific binding was accessed in the presence of 2 mM ATP. After incubation for 1 hour at 25° C., LanthaScreen signals were read on a PHERAstar FS plate reader (BMG LABTECH). Data was analyzed with IDBS XLfit and GraphPad Prism 5.0 software using a four parameter dose response curve to determine IC50 for each compound.

[2] = target: T2, pseudo-kinase domain (JH2, amino-acids 536-812) of human Wild Type JAK2 (Homo sapiens, UniProt O60674, F794H/W659A/W777A); test: JAK2 LanthaScreen JH2-WT Binding Assay; conditions: 1 hour at 25° C.
T2 construct: pseudo-kinase domain (JH2, amino-acids 536-812 with 3 surface mutations W659A, W777A, F794H); purchased BPS Bioscience 79463; host or cells: baculovirus expression system
T2 sequence (O60674 536-812 W659A/W777A/F794H): as the sequence (O60674 536-812 V617F/W659A/W777A/F794H) above, with F82V counted along it
Description: Example B. JAK2 LanthaScreen JH2-WT Binding Assay
as §1, with “JH2-WT” for “JH2-V617F”, “Wild Type” for “V617F mutant”, “#79463).” for “#79498).”, “JH2-WT (0.145” for “JH2-V617F (0.26”

[3] = target: T3, catalytic domain (JH1, amino acids 826-1132) of human JAK2 (Homo sapiens, UniProt O60674); test: JAK2 LanthaScreen JH1 Binding Assay; conditions: 2 hours at 25° C.
T3 construct: catalytic domain (JH1, amino acids 826-1132) of human JAK2; purchased Carna Biosciences 08-445-20N; host or cells: baculovirus expression system
T3 sequence (O60674 826-1132): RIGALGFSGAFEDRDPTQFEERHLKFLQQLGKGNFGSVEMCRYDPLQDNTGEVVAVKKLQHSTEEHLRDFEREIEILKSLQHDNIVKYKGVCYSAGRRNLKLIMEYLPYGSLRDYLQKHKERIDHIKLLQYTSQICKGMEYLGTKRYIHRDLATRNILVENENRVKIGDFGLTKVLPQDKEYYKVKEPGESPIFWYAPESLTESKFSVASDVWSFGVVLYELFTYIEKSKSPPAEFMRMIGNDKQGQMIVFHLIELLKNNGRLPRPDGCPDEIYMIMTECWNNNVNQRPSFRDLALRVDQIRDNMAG
Description: Example A. JAK2 LanthaScreen JH1 Binding Assay
JAK2 JH1 binding assay utilizes catalytic domain (JH1, amino acids 826-1132) of human JAK2 expressed as N-terminal FLAG-tagged, biotinylated protein in a baculovirus expression system (Carna Biosciences, Product #08-445-20N). The assay was conducted in black 384-well polystyrene plates in a final reaction volume of 20 μL. JAK2 JH1 (1.5 nM) was incubated with compounds (100 nL serially diluted in DMSO) in the presence of 50 nM Fluorescent JAK2-JH1 Tracer and 0.5 nM Streptavidin-Tb cryptate (Cisbio Part #610SATLB) in assay buffer (50 mM Tris, pH=7.5, 10 mM MgCl2, 0.01% Brij-35, 0.1% BSA, 1 mM EGTA, 5% Glycerol and 5 mM DTT). Non-specific binding was accessed in the presence of 2 mM ATP. After incubation for 2 hours at 25° C., LanthaScreen signals were read on a PHERAstar FS plate reader (BMG LABTECH). Data was analyzed with IDBS XLfit and GraphPad Prism 5.0 software using a four parameter dose response curve to determine IC50 for each compound.

[4] = target: T4, catalytic domain (JH1, amino acids 808-1132) of human JAK2 (Homo sapiens, UniProt O60674); test: JAK2 HTRF Enzyme Activity Assay; type: biochemical; conditions: ATP 30 μM, read-out: ENZ 30UMATP
T4 construct: catalytic domain (JH1, amino acids 808-1132) of human JAK2; His (N); purchased BPS Bioscience 40450; host or cells: baculovirus expression system
T4 sequence (O60674 808-1132): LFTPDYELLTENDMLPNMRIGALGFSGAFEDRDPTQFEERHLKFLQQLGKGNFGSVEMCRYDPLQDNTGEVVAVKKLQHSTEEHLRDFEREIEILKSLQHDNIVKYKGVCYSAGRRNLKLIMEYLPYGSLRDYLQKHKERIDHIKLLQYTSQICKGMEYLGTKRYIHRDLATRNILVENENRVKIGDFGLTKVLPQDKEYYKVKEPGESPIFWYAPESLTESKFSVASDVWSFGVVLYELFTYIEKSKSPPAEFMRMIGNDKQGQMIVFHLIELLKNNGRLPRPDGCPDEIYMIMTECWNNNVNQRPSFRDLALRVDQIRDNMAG
Description: Example D. JAK2 HTRF Enzyme Activity Assay
JAK2 enzyme activity assays utilize catalytic domain (JH1, amino acids 808-1132) of human JAK2 expressed as N-terminal His-tagged protein in a baculovirus expression system (BPS Bioscience, Catalog #40450). The assays was conducted in black 384-well polystyrene plates in a final reaction volume of 20 μL. JAK2 (0.015 nM) was incubated with compounds (100 nL serially diluted in DMSO) in the presence of ATP (30 μM or 1 mM) and 500 nM Biotin-labeled […] (SEQ ID NO.: 1) peptide (BioSource International, custom synthesis) in assay buffer (50 mM Tris, pH=7.5, 10 mM MgCl2, 0.01% Brij-35, 0.1% BSA, 1 mM EGTA, 5% Glycerol and 5 mM DTT) for 60 minutes at 25° C. The reactions were stopped by the addition of 10 μL of detection buffer (50 mM Tris, pH 7.8, 0.5 mg/mL BSA, 150 mM NaCl), supplemented with EDTA, LANCE Eu-W1024 anti-phosphotyrosine (PY20), (PerkinElmer, Catalog #AD0067) and Streptavidin SureLight APC (PerkinElmer Catalog #CR130-100), for a final concentration of 15 mM, 1.5 nM and 75 nM, respectively. HTRF signals were read after 30 minutes incubation at room temperature on a PHERAstar FS plate reader (BMG LABTECH). Data was analyzed with IDBS XLfit and GraphPad Prism 5.0 software using a four parameter dose response curve to determine IC50 for each compound.

Compound	pIC50 [1]	pIC50 [2]	pIC50 [3]	pIC50 [4]
1-(Ethylsulfonyl)-2″-(3-methoxy-1-methyl-1H-pyrazol-4-yl)-6″-methyl-1″-(1-(methyl-d3)-1H-indazol-5-yl)-3″,6″-dihydro-7″H-dispiro[azetidine-3,1′-cyclobutane-3′,8″-dipyrrolo[2,3-b:3′,2′-d]pyridin]-7″-one, trifluoroacetate salt [Example 99]	≥ 7.00	≥ 7.00	< 5.60	
2′-(1-(1-Cyclopropylethyl)-1H-pyrazol-4-yl)-1-(ethylsulfonyl)-6′-(methyl-d3)-r-(1-methyl-1H-indazol-5-yl)-3′,6′-dihydro-7′H-spiro[azepane-4,8′-dipyrrolo[2,3-b:3′,2′-d]pyridin]-7′-one, trifluoroacetate salt [Example 104]	≥ 7.00	≥ 7.00	6.30 to 7.00	6.30 to 7.00
CN1C(=O)C2(CCOC2)c2c1cnc1[nH]c(-c3ccc(CN4CCC(S(C)(=O)=O)CC4)cc3)c(-c3ccccc3)c21 (racemic) [Example 2, 6-Methyl-2-(4-((4-(methylsulfonyl)piperidin-1-yl)methyl)phenyl)-1-phenyl-3,4′,5′,6-tetrahydro-2′H,7H-spiro[dipyrrolo[2,3-b:3′,2′-d]pyridine-8,3′-furan]-7-one trifluoroacetate salt]	≥ 7.00	≥ 7.00	< 5.60	< 5.60
CN1C(=O)C2(CCN(C(=O)CC3CCOCC3)C2)c2c1cnc1[nH]c(-c3ccc(CN4CCC(S(C)(=O)=O)CC4)cc3)c(-c3ccccc3)c21 (racemic) [Example 12, 6-Methyl-2-(4-((4-(methylsulfonyl)piperidin-1-yl)methyl)phenyl)-1-phenyl-1′-(2-(tetrahydro-2H-pyran-4-yl)acetyl)-3,6-dihydro-7H-spiro[dipyrrolo[2,3-b:3′,2′-d]pyridine-8,3′-pyrrolidin]-7-one trifluoroacetate salt]	6.30 to 7.00	6.30 to 7.00	< 5.60	< 5.60
CC(CC#N)n1cc(-c2ccc(-c3c(-c4cnn(C)c4)[nH]c4ncc5c(c34)C3(CCCC3)C(=O)N5C)cc2)cn1 (racemic) [Example 14, 3-(4-(4-(6′-Methyl-2′-(1-methyl-1H-pyrazol-4-yl)-7′-oxo-6′,7′-dihydro-3′H-spiro[cyclopentane-1,8′-dipyrrolo[2,3-b:3′,2′-d]pyridin]-1′-yl)phenyl)-1H-pyrazol-1-yl)butanenitrile trifluoroacetate salt]	6.30 to 7.00	≥ 7.00	< 5.60	< 5.60
[2H]C([2H])([2H])n1ncc2cc(-c3c(-c4cnn(C)c4)[nH]c4ncc5c(c34)[C@@]3(CC[C@H](NC(=O)C4(CC(N)=O)CCC4)C3)C(=O)N5C)ccc21 (racemic) [Example 100, trifluoroacetate salt]	5.90 to 6.30	5.90 to 6.30	< 5.60	
CO[C@H]1CC[C@@](CC#N)(N2CCC3(CC2)C(=O)N(C)c2cnc4[nH]c(-c5cnn(C)c5)c(-c5ccc6c(cnn6C)c5)c4c23)CC1 (single isomer, unassigned) [Example 75b, 2-(4-Methoxy-1-(6-methyl-1-(1-methyl-1H-indazol-5-yl)-2-(1-methyl-1H-pyrazol-4-yl)-7-oxo-6,7-dihydro-3H-spiro[dipyrrolo[2,3-b:3′,2′-d]pyridine-8,4′-piperidin]-1′-yl)cyclohexyl)acetonitrile]	≥ 7.00		5.90 to 6.30	5.90 to 6.30
O=C(O)C(F)(F)F.[2H]C([2H])([2H])n1ncc2cc(-c3c(-c4cnn5c4OCCC5)[nH]c4ncc5c(c34)C3(CC4(CN(S(=O)(=O)CC)C4)C3)C(=O)N5C)ccc21 [Example 98, 2″-(6,7-Dihydro-5H-pyrazolo[5,1-b][1,3]oxazin-3-yl)-1-(ethylsulfonyl)-6″-methyl-1″-(1-(methyl-d3)-1H-indazol-5-yl)-3″,6″-dihydro-7″H-dispiro[azetidine-3,1′-cyclobutane-3′,8″-dipyrrolo[2,3-b:3′,2′-d]pyridin]-7″-one, trifluoroacetate salt]	≥ 7.00	≥ 7.00	< 5.60	
O=C(O)C(F)(F)F.[2H]C([2H])([2H])n1ccc(-c2[nH]c3ncc4c(c3c2-c2ccc3c(cnn3C)c2)C2(CC3(CCN(C(=O)CCC)CC3)C2)C(=O)N4C)c1 [Example 101, 1″-Butyryl-6-methyl-1-(1-methyl-1H-indazol-5-yl)-2-(1-(methyl-d3)-1H-pyrrol-3-yl)-3,6-dihydro-7H-dispiro[dipyrrolo[2,3-b:3′,2′-d]pyridine-8,1′-cyclobutane-3′,4″-piperidin]-7-one, trifluoroacetate salt]	≥ 7.00	≥ 7.00	5.60 to 5.90	
O=C(O)C(F)(F)F.[2H]C([2H])([2H])n1ccc(-c2[nH]c3ncc4c(c3c2-c2ccc3c(cnn3C([2H])([2H])[2H])c2)C2(CC3(CCN(C(=O)CCC)CC3)C2)C(=O)N4C)c1 [Example 102, 1″-Butyryl-6-methyl-1-(1-(methyl-d3)-1H-indazol-5-yl)-2-(1-(methyl-d3)-1H-pyrrol-3-yl)-3,6-dihydro-7H-dispiro[dipyrrolo[2,3-b:3′,2′-d]pyridine-8,1′-cyclobutane-3′,4″-piperidin]-7-one, trifluoroacetate salt]	≥ 7.00	≥ 7.00	< 5.60	
